Each compound was assayed against human P2X7 receptor (Homo sapiens, UniProt Q99572, R270H/Y155H) (assay: Evaluation of human P2X7 receptor inhibitory activity (Yo-Pro uptake, BzATP stimulation, FLIPR TETRA)). Details: 1321N1 cells stably expressing human P2X7 receptor; BzATP stimulation, Yo-Pro uptake; read-out: IC50 (antagonistic activity for the human P2X7 receptor).
Format: cell-based
Outline: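 1321N1 cells stably expressing human P2X7 (T606C/G952A SNP variant), in HBSS buffer pH 7.4-7.5 with Yo-Pro, stimulated with BzATP; compound added 8 min after agonist. Fluorescence followed for 20 min on FLIPR; max-minus-min change gave % inhibition, IC50 by logistic fit.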
`COc1cn(Cc2cc(F)cc(F)c2)c(Nc2cc3[nH]ncc3cc2C)nc1=O` [Compound I-0597] was tested, and the IC50 was 20 nM.
Work on `COc1cn(Cc2ccccc2)c(Nc2cc3[nH]ccc3cc2C)nc1=O` [Compound I-0618] yielded an IC50 of 7 nM.
`COc1cn(Cc2cc(F)c(F)c(F)c2)c(Nc2cccc3sccc23)nc1=O` [Compound I-0626] was tested, and the IC50 was 4 nM.
`COc1cn(Cc2ccc(F)c(Cl)c2)c(Nc2cccc3occc23)nc1=O` [Compound I-0636] gave an IC50 of 50 nM.

Same assay, conditions: 1321N1 cells stably expressing human P2X7 receptor; BzATP stimulation, Yo-Pro uptake; read-out: IC50 (antagonistic activity for the human P2X7 receptor), class symbol
With `CCc1ccccc1Nc1nc(=O)c(OC)cn1Cc1cc(F)c(F)c(F)c1` [Compound I-0568] the IC50 was 10 to 100 nM.
`COc1cn(Cc2cc(F)c(F)c(F)c2)c(Nc2cccc(C)c2C)nc1=O` [Compound I-0569] gave an IC50 of under 10 nM.
For `COc1cn(Cc2cc(F)c(F)c(F)c2)c(Nc2ccc(C)cc2C)nc1=O` [Compound I-0570], the IC50 was under 10 nM.
In the case of `COc1cn(Cc2cc(F)c(F)c(F)c2)c(Nc2cc(C)ccc2C)nc1=O` [Compound I-0571], the IC50 is reported as under 10 nM.
Work on `COc1cccc(Nc2nc(=O)c(OC)cn2Cc2cc(F)c(F)c(F)c2)c1C` [Compound I-0572] yielded an IC50 of under 10 nM.
For `CCc1cc(OC)ccc1Nc1nc(=O)c(OC)cn1Cc1cc(F)c(F)c(F)c1` [Compound I-0573], the IC50 was under 10 nM.
With `COc1cn(Cc2cc(F)c(F)c(F)c2)c(Nc2cc(C)c(C)cc2C)nc1=O` [Compound I-0574] the IC50 was under 10 nM.
Work on `COc1cn(Cc2cc(F)c(F)c(F)c2)c(Nc2cc(C)c(Cl)cc2C)nc1=O` [Compound I-0575] yielded an IC50 of under 10 nM.
Work on `COc1cn(Cc2cc(F)cc(Cl)c2)c(Nc2cccc(OC(F)F)c2C)nc1=O` [Compound I-0576] yielded an IC50 of 10 to 100 nM.
In the case of `COc1cn(Cc2cc(F)cc(Cl)c2)c(Nc2cccc(C)c2Cl)nc1=O` [Compound I-0577], the IC50 is reported as 10 to 100 nM.
`COc1cn(Cc2cc(F)cc(Cl)c2)c(Nc2cc(CO)c(C)cc2C)nc1=O` [Compound I-0578] gave an IC50 of under 10 nM.
With `COc1cn(Cc2cc(F)cc(Cl)c2)c(Nc2cccc3[nH]c(C)cc23)nc1=O` [Compound I-0579] the IC50 was 10 to 100 nM.
In the case of `COc1cn(Cc2cc(F)cc(Cl)c2)c(Nc2cc3[nH]ncc3cc2C)nc1=O` [Compound I-0580], the IC50 is reported as 10 to 100 nM.
`COc1ccc(Nc2nc(=O)c(OC)cn2Cc2cc(F)c(F)c(F)c2)c(C)c1` [Compound I-0581] was tested, and the IC50 was under 10 nM.
`COc1cn(Cc2cc(F)cc(C(F)(F)F)c2)c(Nc2cccc(Cl)c2C)nc1=O` [Compound I-0582] showed an IC50 of 100 to 500 nM.
In the case of `COc1cn(Cc2ccccc2)c(Nc2ccc3[nH]ccc3c2C)nc1=O` [Compound I-0583], the IC50 is reported as under 10 nM.

Same assay, conditions: antagonistic activity for the human P2X7 receptor; read-out: IC50
`COc1cn(Cc2ccc(F)c(Cl)c2)c(Nc2ccc3[nH]ccc3c2C)nc1=O` [Compound I-0584] gave an IC50 of under 10 nM.
Compound `COc1cc(Nc2nc(=O)c(OC)cn2Cc2ccccc2)c(C)cc1C` [Compound I-0585] has an IC50 of under 10 nM.
`COc1cc(Nc2nc(=O)c(OC)cn2Cc2ccc(F)c(Cl)c2)c(C)cc1C` [Compound I-0586] gave an IC50 of under 10 nM.
`COc1cn(Cc2ccccc2)c(Nc2cc(-c3cccn(C)c3=O)ccc2C)nc1=O` [Compound I-0587] gave an IC50 of 10 to 100 nM.
Compound `COc1cn(Cc2ccc(F)c(Cl)c2)c(Nc2cc(-c3cccn(C)c3=O)ccc2C)nc1=O` [Compound I-0588] has an IC50 of under 10 nM.
Work on `COc1cn(Cc2cc(F)cc(F)c2)c(Nc2cc(-c3cccn(C)c3=O)ccc2C)nc1=O` [Compound I-0589] yielded an IC50 of under 10 nM.
`COc1cn(Cc2ccccc2)c(Nc2cc(-c3cccn(C)c3=O)c(F)cc2C)nc1=O` [Compound I-0590] was tested, and the IC50 was 10 to 100 nM.
`COc1cn(Cc2ccc(F)c(Cl)c2)c(Nc2cc(-c3cccn(C)c3=O)c(F)cc2C)nc1=O` [Compound I-0591] gave an IC50 of 10 to 100 nM.
`COc1cn(Cc2cc(F)cc(F)c2)c(Nc2cc(-c3cccn(C)c3=O)c(F)cc2C)nc1=O` [Compound I-0592] gave an IC50 of 10 to 100 nM.
`COc1cn(Cc2cc(F)cc(F)c2)c(Nc2cc(Cl)ccc2C)nc1=O` [Compound I-0593] was tested, and the IC50 was 10 to 100 nM.
In the case of `COc1cn(Cc2ccc(F)c(Cl)c2)c(Nc2cc(Cl)ccc2C)nc1=O` [Compound I-0594], the IC50 is reported as 10 to 100 nM.
With `COc1cn(Cc2ccc(F)c(Cl)c2)c(Nc2ccccc2Cc2ccccn2)nc1=O` [Compound I-0595] the IC50 was under 10 nM.
With `COc1cn(Cc2cc(F)c(F)c(F)c2)c(Nc2ccc(OC(F)(F)F)cc2C)nc1=O` [Compound I-0596] the IC50 was 10 to 100 nM.
With `COc1cn(Cc2cc(F)cc(F)c2)c(Nc2cccc3[nH]c(C)cc23)nc1=O` [Compound I-0598] the IC50 was 10 to 100 nM.
In the case of `COc1cn(Cc2cc(F)cc(F)c2)c(Nc2cc(-c3nnco3)ccc2C)nc1=O` [Compound I-0599], the IC50 is reported as 10 to 100 nM.
Compound `COc1cn(Cc2cc(F)cc(F)c2)c(Nc2cc(CO)c(C)cc2C)nc1=O` [Compound I-0600] has an IC50 of under 10 nM.
`COc1cc(C)cc(Nc2nc(=O)c(OC)cn2Cc2cc(F)c(F)c(F)c2)c1C` [Compound I-0601] showed an IC50 of under 10 nM.
Work on `COc1cn(Cc2cc(F)c(F)c(F)c2)c(Nc2cccc3[nH]c(=O)ccc23)nc1=O` [Compound I-0602] yielded an IC50 of 100 to 500 nM.
For `COc1cn(Cc2cc(F)c(F)c(F)c2)c(Nc2cccc3c(=O)[nH]ccc23)nc1=O` [Compound I-0603], the IC50 was 10 to 100 nM.
For `COc1cn(Cc2ccc(F)c(F)c2)c(Nc2cc(-c3ncco3)ccc2C)nc1=O` [Compound I-0604], the IC50 was under 10 nM.
`COc1cn(Cc2ccc(F)c(F)c2)c(Nc2cc(S(C)(=O)=O)c(C)cc2C)nc1=O` [Compound I-0605] was tested, and the IC50 was 10 to 100 nM.
In the case of `COc1cn(Cc2ccc(F)c(F)c2)c(Nc2cccc(SC)c2C)nc1=O` [Compound I-0606], the IC50 is reported as under 10 nM.
In the case of `COc1cn(Cc2cc(F)c(F)c(F)c2)c(Nc2cc(C)c(OC(F)F)cc2C)nc1=O` [Compound I-0607], the IC50 is reported as under 10 nM.
`COc1ccc(Nc2nc(=O)c(OC)cn2Cc2cc(F)cc(Cl)c2)c(C)c1` [Compound I-0608] gave an IC50 of 10 to 100 nM.
`COc1cn(Cc2cc(F)cc(Cl)c2)c(Nc2ccc(OC(F)(F)F)cc2C)nc1=O` [Compound I-0609] was tested, and the IC50 was 100 to 500 nM.
Work on `COc1c(C)ccc(Nc2nc(=O)c(OC)cn2Cc2cc(F)cc(Cl)c2)c1C` [Compound I-0610] yielded an IC50 of 10 to 100 nM.
`CCc1cc(Cl)ccc1Nc1nc(=O)c(OC)cn1Cc1cc(F)cc(Cl)c1` [Compound I-0611] showed an IC50 of 10 to 100 nM.
For `COc1cn(Cc2cc(F)cc(Cl)c2)c(Nc2ccc(N3CCOCC3)cc2C)nc1=O` [Compound I-0612], the IC50 was 100 to 500 nM.
With `COc1cn(Cc2cc(F)cc(Cl)c2)c(Nc2ccc(OC(F)F)cc2C)nc1=O` [Compound I-0613] the IC50 was 10 to 100 nM.
With `COc1cc(C)c(Nc2nc(=O)c(OC)cn2Cc2cccc(F)c2)cc1Cl` [Compound I-0614] the IC50 was under 10 nM.
`COc1cc(C)c(Nc2nc(=O)c(OC)cn2Cc2ccc(F)cc2)cc1Cl` [Compound I-0615] gave an IC50 of under 10 nM.
For `COc1cc(C)c(Nc2nc(=O)c(OC)cn2Cc2ccc(F)c(F)c2)cc1Cl` [Compound I-0616], the IC50 was under 10 nM.
Work on `COc1cc(C)c(Nc2nc(=O)c(OC)cn2Cc2cc(F)cc(F)c2)cc1Cl` [Compound I-0617] yielded an IC50 of under 10 nM.
In the case of `COc1cn(Cc2ccc(F)c(Cl)c2)c(Nc2cc3[nH]ccc3cc2C)nc1=O` [Compound I-0619], the IC50 is reported as under 10 nM.
In the case of `COc1cn(Cc2cc(F)cc(F)c2)c(Nc2cc3[nH]ccc3cc2C)nc1=O` [Compound I-0620], the IC50 is reported as under 10 nM.
`CCc1ccc(Br)cc1Nc1nc(=O)c(OC)cn1Cc1ccccc1` [Compound I-0621] showed an IC50 of under 10 nM.
Compound `COc1cn(Cc2ccccc2)c(Nc2ccc(N(C)C)cc2C)nc1=O` [Compound I-0622] has an IC50 of 10 to 100 nM.
`COc1cc(C)c(Nc2nc(=O)c(OC)cn2Cc2cc(F)c(F)c(F)c2)cc1OC` [Compound I-0623] showed an IC50 of under 10 nM.
In the case of `CCOc1cc(C)c(Nc2nc(=O)c(OC)cn2Cc2cc(F)c(F)c(F)c2)cc1C` [Compound I-0624], the IC50 is reported as under 10 nM.
In the case of `COc1ccc(C)c(Nc2nc(=O)c(OC)cn2Cc2cc(F)c(F)c(F)c2)c1` [Compound I-0625], the IC50 is reported as under 10 nM.
In the case of `COc1ccc(C)c(Nc2nc(=O)c(OC)cn2Cc2cccc(Cl)c2)c1` [Compound I-0627], the IC50 is reported as 10 to 100 nM.
With `COc1cn(Cc2ccccc2)c(Nc2ccc(OC(F)(F)F)cc2C)nc1=O` [Compound I-0628] the IC50 was 100 to 500 nM.
In the case of `COc1cn(Cc2cc(F)cc(F)c2)c(Nc2ccc(OC(F)(F)F)cc2C)nc1=O` [Compound I-0629], the IC50 is reported as 10 to 100 nM.
`CCc1cc(Br)ccc1Nc1nc(=O)c(OC)cn1Cc1cc(F)cc(F)c1` [Compound I-0630] gave an IC50 of under 10 nM.
`CCc1cc(Br)ccc1Nc1nc(=O)c(OC)cn1Cc1ccc(F)c(Cl)c1` [Compound I-0631] was tested, and the IC50 was 10 to 100 nM.
Work on `COc1cc(C)c(Nc2nc(=O)c(OC)cn2Cc2cc(F)c(F)c(F)c2)cc1C` [Compound I-0632] yielded an IC50 of under 10 nM.
`COc1cn(Cc2cc(F)c(F)c(F)c2)c(Nc2cc(OC(C)C)ccc2C)nc1=O` [Compound I-0633] was tested, and the IC50 was under 10 nM.
Work on `COc1cn(Cc2ccc(C(F)(F)F)c(F)c2)c(Nc2cccc(Cl)c2C)nc1=O` [Compound I-0634] yielded an IC50 of 100 to 500 nM.
`COc1cn(Cc2ccc(F)c(C(F)(F)F)c2)c(Nc2cccc(Cl)c2C)nc1=O` [Compound I-0635] gave an IC50 of 10 to 100 nM.
`CCc1ccc(OC)cc1Nc1nc(=O)c(OC)cn1Cc1cc(F)cc(F)c1` [Compound I-0637] showed an IC50 of under 10 nM.
Work on `COc1cccc(Nc2nc(=O)c(OC)cn2Cc2cc(F)cc(F)c2)c1Cl` [Compound I-0638] yielded an IC50 of under 10 nM.
`COc1ccc(Cl)c(Nc2nc(=O)c(OC)cn2Cc2cc(F)cc(F)c2)c1` [Compound I-0639] gave an IC50 of 10 to 100 nM.
In the case of `COc1cn(Cc2cc(F)cc(F)c2)c(Nc2cccc3occc23)nc1=O` [Compound I-0640], the IC50 is reported as 10 to 100 nM.
`COc1cn(Cc2cccc(F)c2)c(Nc2cccc(OC(F)F)c2C)nc1=O` [Compound I-0641] showed an IC50 of 10 to 100 nM.
`COc1cccc(Nc2nc(=O)c(OC)cn2Cc2cccc(F)c2)c1C` [Compound I-0642] was tested, and the IC50 was under 10 nM.
For `COc1cn(Cc2cccc(F)c2)c(Nc2cccc(C)c2Cl)nc1=O` [Compound I-0643], the IC50 was 10 to 100 nM.
In the case of `COc1cn(Cc2cccc(F)c2)c(Nc2cc(C)ccc2C)nc1=O` [Compound I-0644], the IC50 is reported as 10 to 100 nM.
For `COc1cn(Cc2ccc(F)c(F)c2)c(Nc2cc(C)cc3[nH]ccc23)nc1=O` [Compound I-0645], the IC50 was 10 to 100 nM.

— patent publication US10774051B2, “6-membered heterocyclic derivatives and pharmaceutical composition comprising the same” (Shionogi & Co., Ltd., priority 2015, dated 2020)
